According to patent US20140336259A1, “PHENOLIC COMPOUNDS WITH ANTIOXIDANT AND ANTI-CANCER PROPERTIES, ANALOGS AND SYNTHESIS THEREOF” (priority 2011, published 2014):
≈ marks a conversion by molar mass, not a printed value. Where “and” joins values, the source holds several entries; their conditions need not be identical. Identical values can stand only once. Like-named read-outs stand apart in the source and are kept apart here.

Columns and labels:
[1] = system: MDA-MB-231 (ER negative) human breast cancer cells; experiment: MTS antiproliferative/cytotoxicity assay on MDA-MB-231 cells; type: cell-based
colon cancer cell lines = details: Gonzales-Sarrias et al. 2011; cited from earlier work
[2] = system: MCF-7 (estrogen receptor (ER) positive) human breast cancer cells; experiment: MTS antiproliferative/cytotoxicity assay on MCF-7 cells; details: for MCF-7 IC50: 72 h treatment, mean ± S.D., vs DMSO 0.5% control; for antiproliferative / cytotoxic activity in words: against MCF-7 cells and MDA-MB 231 cells, 72 h of treatment
[3] = system: MCF-7 (estrogen receptor (ER) positive) human breast cancer cells
[4] = Homo sapiens, MDA-MB-231, 24 h, 24 h, read-out: IC50 MDA-MB-231 24 h
[5] = Homo sapiens, MDA-MB-231, 48 h, read-out: IC50 MDA-MB-231 48 h, 48 h
[6] = Homo sapiens, MDA-MB-231, 72 h, 72 h, read-out: IC50 MDA-MB-231 72 h
[7] = Homo sapiens, MDA-MB-231, 72 h, 72 h treatment, mean ± S.D., vs DMSO 0.5% control, read-out: MDA-MB-231 IC50
[8] = Homo sapiens, MDA-MB-231, 96 h, 96 h, read-out: IC50 MDA-MB-231 96 h
[9] = read-out: IC50 MCF-7 24 h, 24 h
[10] = read-out: IC50 MCF-7 48 h, 48 h
[11] = read-out: IC50 MCF-7 72 h, 72 h
[12] = read-out: IC50 MCF-7 96 h, 96 h
[13] = 24 h, read-out: IC50 MDA-MB-231 24 h
[14] = 72 h, read-out: IC50 MDA-MB-231 72 h
[15] = 72 h treatment, mean ± S.D., vs DMSO 0.5% control
[16] = 96 h, read-out: IC50 MDA-MB-231 96 h
[17] = read-out: IC50 MDA-MB-231 48 h, 48 h

Structure (SMILES)	IC50 [1, 4]	IC50 [1, 5]	IC50 [1, 6]	IC50 [1, 7]	IC50 [1, 8]	IC50 MCF-7 24 h ([2]; 24 h)	IC50 MCF-7 48 h ([2]; 48 h)	MCF-7 IC50 [2]	IC50 MCF-7 96 h ([2]; 96 h)	antiproliferative / cytotoxic activity in words [2]	IC50 [2, 9]	IC50 [2, 10]	IC50 [2, 11]	IC50 [2, 12]	other results
COc1cc(C(CO)C(c2ccc(O)c(OC)c2)c2ccc(O)c(OC)c2)ccc1O (centres unmarked) [QUEBECOL, 4,4′,4″-(3-Hydroxypropane-1,1,2-triyl)tris(2-methoxyphenol)]	70.9 µg/mL and 166 µM	57 µg/mL and 134 µM	50.7 µg/mL and 119 µM	50.7 ± 2.4 µg/mL	43.3 µg/mL and 102 µM	65.9 µg/mL (≈ 155 µM)	53.5 µg/mL (≈ 125 µM)	46.3 ± 2.1 µg/mL	37.4 µg/mL (≈ 87.7 µM)						IC50 ([1]; Homo sapiens, MDA-MB-231, 24 h, 24 h, combination study Table 5B, T starting 50 μM, Q starting 200 μM, read-out: IC50 MDA-MB-231 24 h): 166 µM; IC50 ([1]; Homo sapiens, MDA-MB-231, 48 h, read-out: IC50 MDA-MB-231 48 h, 48 h, combination study Table 5B): 134 µM; IC50 ([1]; Homo sapiens, MDA-MB-231, 72 h, 72 h, combination study Table 5B, read-out: IC50 MDA-MB-231 72 h): 119 µM; IC50 ([1]; Homo sapiens, MDA-MB-231, 96 h, 96 h, combination study Table 5B, read-out: IC50 MDA-MB-231 96 h): 102 µM; cytotoxic effect on colon cancer cell lines (colon cancer cell lines): cytotoxic effect; MCF-7 IC50 ([2]; listed as QUEBECOL Natural): 46.3 ± 2.1 µg/mL; IC50 ([2]; read-out: IC50 MCF-7 24 h, 24 h, combination study Table 5A, T starting 50 μM, Q starting 200 μM): 155 µM; IC50 ([2]; read-out: IC50 MCF-7 24 h, 24 h, listed as QUEBECOL Natural): 155 µM; IC50 ([2]; read-out: IC50 MCF-7 48 h, 48 h, combination study Table 5A): 126 µM; IC50 ([2]; read-out: IC50 MCF-7 48 h, 48 h, listed as QUEBECOL Natural): 126 µM; IC50 ([2]; read-out: IC50 MCF-7 72 h, 72 h, combination study Table 5A): 109 µM; IC50 ([2]; read-out: IC50 MCF-7 72 h, 72 h, listed as QUEBECOL Natural): 109 µM; IC50 ([2]; read-out: IC50 MCF-7 96 h, 96 h, combination study Table 5A): 87.9 µM; IC50 ([2]; read-out: IC50 MCF-7 96 h, 96 h, listed as QUEBECOL Natural): 87.9 µM
COc1ccc(C(O)(c2ccc(OC)c(C=O)c2)c2ccc(OC)c(C=O)c2)cc1C=O [TRD8]	43.5 µg/mL and 100 µM	27.8 µg/mL and 63.9 µM	17.4 µg/mL and 40 µM	17.5 to 24 µg/mL	11.2 µg/mL and 25.8 µM	42.0 µg/mL (≈ 96.7 µM)	21.8 µg/mL (≈ 50.2 µM)	10.6 ± 2.1 µg/mL	7.0 µg/mL (≈ 16.1 µM)	highest antiproliferative activities	96.7 µM	50.1 µM	24.3 µM	16.2 µM	
COc1ccc(C(O)(c2ccc(OC)c(Br)c2)c2ccc(OC)c(Br)c2)cc1Br [TRD9]	115 µg/mL and 196 µM	108 µg/mL and 183 µM	97.8 µg/mL and 167 µM	97.8 ± 3.5 µg/mL	89.9 µg/mL and 153 µM	110.7 µg/mL (≈ 189 µM)	102.5 µg/mL (≈ 175 µM)	91.4 ± 3.4 µg/mL	82.3 µg/mL (≈ 140 µM)		189 µM	175 µM	156 µM	140 µM	
COc1cc(C(CO)C(c2ccc(O)c(OC)c2)c2ccc(O)c(OC)c2)ccc1O (centres unmarked) [QUEBECOL SYNTHETIC, 4,4′,4″-(3-Hydroxypropane-1,1,2-triyl)tris(2-methoxyphenol)]						67.2 µg/mL (≈ 158 µM)	54.2 µg/mL (≈ 127 µM)	44.4 ± 1.8 µg/mL	38.0 µg/mL (≈ 89.1 µM)		158 µM	127 µM	104 µM	89.1 µM	IC50 MDA-MB-231 24 h ([1]; 24 h): 72.5 µg/mL (≈ 170 µM); IC50 [1, 13]: 170 µM; IC50 MDA-MB-231 48 h ([1]; 48 h): 55.6 µg/mL (≈ 130 µM); IC50 MDA-MB-231 72 h ([1]; 72 h): 48.5 µg/mL (≈ 114 µM); IC50 [1, 14]: 114 µM; MDA-MB-231 IC50 [1, 15]: 48.5 ± 1.9 µg/mL; IC50 MDA-MB-231 96 h ([1]; 96 h): 43.8 µg/mL (≈ 103 µM); IC50 [1, 16]: 103 µM; IC50 [1, 17]: 130 µM
COC(=O)c1cc(C(O)(c2ccc(O)c(C(=O)OC)c2)c2ccc(O)c(C(=O)OC)c2)ccc1O [TRD1]			93.9 µg/mL and 195 µM	93.9 ± 2.4 µg/mL	89.4 µg/mL and 185 µM	94.2 µg/mL (≈ 195 µM)	89.1 µg/mL (≈ 185 µM)	84.1 ± 3.4 µg/mL	78.3 µg/mL (≈ 162 µM)		195 µM	185 µM	174 µM	162 µM	
COc1ccc(C(O)(c2ccc(OC)c(Cl)c2)c2ccc(OC)c(Cl)c2)cc1Cl [TRD10]		85.8 µg/mL and 189 µM	77.4 µg/mL and 170 µM	62.9 to 77.4 µg/mL	68.7 µg/mL and 151 µM	87.0 µg/mL (≈ 192 µM)	81.9 µg/mL (≈ 180 µM)	73.5 ± 1.8 µg/mL	54.4 µg/mL (≈ 120 µM)		192 µM	180 µM	162 µM	120 µM	antiproliferative / cytotoxic activity in words [3]: moderate cytotoxic activity
COc1ccc(C(O)(c2ccc(OC)c(F)c2)c2ccc(OC)c(F)c2)cc1F [TRD7]						42.3 µg/mL (≈ 105 µM)	32.7 µg/mL (≈ 80.9 µM)		23.2 µg/mL (≈ 57.4 µM)	highest antiproliferative activities	105 µM	80.9 µM	61.3 µM	57.3 µM	IC50 MDA-MB-231 24 h ([1]; 24 h): 36.4 µg/mL (≈ 90 µM); IC50 [1, 13]: 90 µM; IC50 MDA-MB-231 48 h ([1]; 48 h): 30.4 µg/mL (≈ 75.2 µM); IC50 MDA-MB-231 72 h ([1]; 72 h): 24.0 µg/mL (≈ 59.3 µM); IC50 [1, 14]: 59.4 µM; MDA-MB-231 IC50 [1, 15]: 24.0 ± 2.1 µg/mL; IC50 MDA-MB-231 96 h ([1]; 96 h): 15.6 µg/mL (≈ 38.6 µM); IC50 [1, 16]: 38.7 µM; IC50 [1, 17]: 75.3 µM; IC50 MCF-7 72 h ([2]; 72 h): 24.8 µg/mL (≈ 61.3 µM)
COc1ccc(C(O)(c2ccc(OC)c(O)c2)c2ccc(OC)c(O)c2)cc1O [TRD6]			75.2 µg/mL and 189 µM	62.9 to 77.4 µg/mL	71.5 µg/mL and 179 µM	78.7 µg/mL (≈ 198 µM)	66.1 µg/mL (≈ 166 µM)	60.4 ± 1.9 µg/mL	43.6 µg/mL (≈ 109 µM)	moderate cytotoxic activity	198 µM	166 µM	152 µM	109 µM	
OCc1cc(CCCCCCCCCCCCc2ccc(O)c(CO)c2)ccc1O [TRD5]			81.6 µg/mL and 197 µM	62.9 to 77.4 µg/mL	78.2 µg/mL and 189 µM		80.9 µg/mL (≈ 195 µM)	75.9 ± 1.9 µg/mL	66.5 µg/mL (≈ 160 µM)	moderate cytotoxic activity		195 µM	183 µM	160 µM	
COc1cc(C(O)c2ccc(OCc3ccccc3)c(OC)c2)ccc1OCc1ccccc1 [QB46]	78.3 µg/mL and 172 µM	72.4 µg/mL and 159 µM	62.9 µg/mL and 138 µM	62.9 to 77.4 µg/mL	53 µg/mL and 116 µM	73.2 µg/mL (≈ 160 µM)	59.5 µg/mL (≈ 130 µM)	44.8 ± 1.7 µg/mL	36.8 µg/mL (≈ 80.6 µM)	moderate cytotoxic activity	160 µM	130 µM	98.1 µM	80.7 µM	
COc1cc(C(O)c2ccccc2OC)ccc1OCc1ccccc1 (centres unmarked) [QB12]			67.2 µg/mL and 192 µM	62.9 to 77.4 µg/mL	58 µg/mL and 165 µM			65.0 ± 1.4 µg/mL	59.6 µg/mL (≈ 170 µM)	moderate cytotoxic activity			185 µM	170 µM	
CCOC(=O)C(c1ccc(O)c(OC)c1)C(c1ccc(O)c(OC)c1)c1ccc(O)c(OC)c1 (centres unmarked) [QB57]			85.1 µg/mL and 182 µM	85.1 ± 1.8 µg/mL	73.8 µg/mL and 158 µM										
CCOC(=O)C(c1ccc(OCc2ccccc2)c(OC)c1)C(c1ccc(OCc2ccccc2)c(OC)c1)c1ccc(OCc2ccccc2)c(OC)c1 (centres unmarked) [QB56]		143 µg/mL and 195 µM	136 µg/mL and 185 µM	136 ± 3.7 µg/mL	129 µg/mL and 176 µM			138.1 ± 3.1 µg/mL	124.9 µg/mL (≈ 169 µM)				188 µM	170 µM	
